Source: patent US6525001B1, “Substituted pyrimidine and pyridine herbicides” (Mid-American Commercialization Corporation, priority 1997, dated 2003)

How the values were obtained:
Assay type in all cases: in vivo
[1] = tested on: smallflower flatsedge (Cyperus difformis); assay: Test B flood test
Method in brief: (§1)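 Plants were grown to the 2-leaf stage before treatment with test chemical, then held in a greenhouse for twelve to sixteen days. Injury was visually rated against untreated controls on a 0–10 scale, where 0 is no effect and 10 is complete control.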

[2] = tested on: bamyardgrass (Echinochloa crus-galli); assay: Test B flood test
Method in brief: as §1

rice (Oryza sativa) = assay: Test B flood test
Method in brief: as §1

[3] = tested on: duck salad (Heteranthera limosa); assay: Test B flood test
Method in brief: as §1

corn (Zea mays) = assay: Test B pre-/postemergence; parameters: key: 0 is no effect; 10 is complete control; details: for Corn plant response rating: Preemergence
Method in brief: (§2)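 Seeds were planted and sprayed preemergence, while plants at 2 to 18 cm (1- to 4-leaf stage) were sprayed postemergence at the same time, with test chemical in a non-phytotoxic solvent mixture containing surfactant. After twelve to sixteen days in a greenhouse, injury was rated visually against untreated controls on a 0–10 scale.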

[4] = tested on: momingglory (Ipomoea hederacea); assay: Test B pre-/postemergence; parameters: key: 0 is no effect; 10 is complete control
Method in brief: as §2

soybean (Glycine max) = assay: Test B pre-/postemergence; parameters: key: 0 is no effect; 10 is complete control
Method in brief: as §2

[5] = tested on: wheat (Triticum aestivum); assay: Test B pre-/postemergence; parameters: key: 0 is no effect; 10 is complete control
Method in brief: as §2

[6] = tested on: giant foxtail (Setaria faberii); assay: Test B pre-/postemergence; parameters: key: 0 is no effect; 10 is complete control
Method in brief: as §2

[7] = tested on: velvetleaf (Abutilon theophrasti); assay: Test B pre-/postemergence; parameters: key: 0 is no effect; 10 is complete control
Method in brief: as §2

rape (Brassica napus) = assay: Test B pre-/postemergence; parameters: key: 0 is no effect; 10 is complete control
Method in brief: as §2

[8] = tested on: crabgrass (Digitaria sanguinalis); assay: Test B pre-/postemergence; parameters: key: 0 is no effect; 10 is complete control; details: for Crabgrass plant response rating: Preemergence
Method in brief: as §2

[9] = tested on: broadleaf signalgrass (Brachiaria decumbens); assay: Test B pre-/postemergence; parameters: key: 0 is no effect; 10 is complete control; details: for B. signalgrass plant response rating: Preemergence
Method in brief: as §2

[10] = tested on: cocklebur (Xanthium strumarium); assay: Test B pre-/postemergence; parameters: key: 0 is no effect; 10 is complete control; details: for Cocklebur plant response rating: Preemergence
Method in brief: as §2

[11] = tested on: bedstraw (Galium aparine); assay: Test B pre-/postemergence; parameters: key: 0 is no effect; 10 is complete control; details: for Bedstraw plant response rating: Preemergence
Method in brief: as §2

[12] = tested on: purple nutsedge (Cyperus rotundus); assay: Test B pre-/postemergence; parameters: key: 0 is no effect; 10 is complete control; details: Postemergence
Method in brief: as §2

[13] = tested on: pigweed (Amaranthus retroflexus); assay: Test B pre-/postemergence; parameters: key: 0 is no effect; 10 is complete control
Method in brief: as §2

[14] = tested on: sugar beet (Beta vulgaris); assay: Test B pre-/postemergence; parameters: key: 0 is no effect; 10 is complete control
Method in brief: as §2

wild oat (Avena fatua) = assay: Test B pre-/postemergence; parameters: key: 0 is no effect; 10 is complete control
Method in brief: as §2

[15] = tested on: blackgrass (Alopecurus myosuroides); assay: Test B pre-/postemergence; parameters: key: 0 is no effect; 10 is complete control; details: for Blackgrass plant response rating: Preemergence
Method in brief: as §2

[16] = Rate 62 g/ha, Postemergence (flood test)
[17] = Rate 125 g/ha, Postemergence section (flood test species)
[18] = Rate 250 g/ha, Postemergence (flood test species)
[19] = Rate 125 g/ha, Postemergence, flood test
[20] = Rate 250 g/ha, Postemergence (so in the source)

CCc1cnc(-c2ccc(C(F)(F)F)cc2)nc1Cc1cccc(OC(F)(F)F)c1 [Compound 41] was tested, and the “Plant response rating, S. Flatsedge” value [1, 16] was 5, the “S. Flatsedge plant response rating” value [1, 17] was 7 and the “Plant response rating, S. Flatsedge” value [1, 18] was 9. The “Plant response rating, Barnyardgrass” value [2, 16] was 5, the “Plant response rating, Barnyardgrass” value [2, 19] was 5 and the “Plant response rating, Barnyardgrass” value [2, 18] was 5. For the same molecule, the “Plant response rating, Rice” value (rice (Oryza sativa); [16]) was 5, the “Rice plant response rating” value (rice (Oryza sativa); [17]) was 5 and the “Plant response rating, Rice” value (rice (Oryza sativa); [18]) was 6. The “Plant response rating, Ducksalad” value [3, 16] was 2, the “Plant response rating, Ducksalad” value [3, 19] was 3 and the “Plant response rating, Ducksalad” value [3, 18] was 5. For the same molecule, the “Plant response rating, Corn” value (corn (Zea mays); Rate 62 g/ha, Postemergence) was 2, the “Corn plant response rating” value (corn (Zea mays); Rate 62 g/ha) was 0 and the “Plant response rating, Corn” value (corn (Zea mays); Rate 125 g/ha, Postemergence) was 2. For the same molecule, the “Corn plant response rating” value (corn (Zea mays); Rate 125 g/ha) was 1, the “Plant response rating, Corn” value (corn (Zea mays); Rate 250 g/ha, Postemergence) was 3 and the “Plant response rating, Corn” value (corn (Zea mays); [20]) was 1. The “Plant response rating, Morningglory” value ([4]; Rate 62 g/ha, Postemergence) was 8, the “Morningglory plant response rating” value ([4]; Rate 62 g/ha, Preemergence) was 1 and the “Morningglory plant response rating” value ([4]; Rate 125 g/ha, Postemergence) was 8. For the same molecule, the “Morningglory plant response rating” value ([4]; Rate 125 g/ha, Preemergence) was 1, the “Plant response rating, Morningglory” value ([4]; Rate 250 g/ha, Postemergence) was 8 and the “Plant response rating, Morningglory” value [4, 20] was 2. For the same molecule, the “Plant response rating, Soybean” value (soybean (Glycine max); Rate 62 g/ha, Postemergence) was 5, the “Soybean plant response rating” value (soybean (Glycine max); Rate 62 g/ha, Preemergence) was 0 and the “Soybean plant response rating” value (soybean (Glycine max); Rate 125 g/ha, Postemergence) was 7. The “Plant response rating, Soybean” value (soybean (Glycine max); Rate 125 g/ha, Preemergence) was 0, the “Plant response rating, Soybean” value (soybean (Glycine max); Rate 250 g/ha, Postemergence) was 7 and the “Plant response rating, Soybean” value (soybean (Glycine max); [20]) was 1. For the same molecule, the “Wheat plant response rating” value ([5]; Rate 62 g/ha, Postemergence) was 2, the “Wheat plant response rating” value ([5]; Rate 62 g/ha, Preemergence) was 1 and the “Wheat plant response rating” value ([5]; Rate 125 g/ha, Postemergence) was 3. For the same molecule, the “Plant response rating, Wheat” value ([5]; Rate 125 g/ha, Preemergence) was 1, the “Plant response rating, Wheat” value ([5]; Rate 250 g/ha, Postemergence) was 3 and the “Plant response rating, Wheat” value [5, 20] was 2. The “Plant response rating, Giant foxtail” value ([6]; Rate 62 g/ha, Postemergence) was 2, the “Giant foxtail plant response rating” value ([6]; Rate 62 g/ha, Preemergence) was 6 and the “Giant foxtail plant response rating” value ([6]; Rate 125 g/ha, Postemergence) was 6. For the same molecule, the “Giant foxtail plant response rating” value ([6]; Rate 125 g/ha, Preemergence) was 9, the “Plant response rating, Giant foxtail” value ([6]; Rate 250 g/ha, Postemergence) was 9 and the “Plant response rating, Giant foxtail” value [6, 20] was 10. The “Plant response rating, Velvetleaf” value ([7]; Rate 62 g/ha, Postemergence) was 8, the “Velvetleaf plant response rating” value ([7]; Rate 62 g/ha, Preemergence) was 1 and the “Velvetleaf plant response rating” value ([7]; Rate 125 g/ha, Postemergence) was 8. The “Plant response rating, Velvetleaf” value ([7]; Rate 125 g/ha, Preemergence) was 3, the “Plant response rating, Velvetleaf” value ([7]; Rate 250 g/ha, Postemergence) was 8 and the “Plant response rating, Velvetleaf” value [7, 20] was 10. The “Plant response rating, Rape” value (rape (Brassica napus); Rate 62 g/ha, Postemergence) was 10, the “Rape plant response rating” value (rape (Brassica napus); Rate 62 g/ha, Preemergence) was 3 and the “Rape plant response rating” value (rape (Brassica napus); Rate 125 g/ha, Postemergence) was 10. The “Rape plant response rating” value (rape (Brassica napus); Rate 125 g/ha, Preemergence) was 3, the “Plant response rating, Rape” value (rape (Brassica napus); Rate 250 g/ha, Postemergence) was 10 and the “Plant response rating, Rape” value (rape (Brassica napus); [20]) was 4. The “Plant response rating, Crabgrass” value ([8]; Rate 62 g/ha, Postemergence) was 7, the “Crabgrass plant response rating” value ([8]; Rate 62 g/ha) was 8 and the “Plant response rating, Crabgrass” value ([8]; Rate 125 g/ha, Postemergence) was 9. The “Crabgrass plant response rating” value ([8]; Rate 125 g/ha) was 9, the “Plant response rating, Crabgrass” value ([8]; Rate 250 g/ha, Postemergence) was 10 and the “Plant response rating, Crabgrass” value [8, 20] was 9. For the same molecule, the “Plant response rating, B. signalgrass” value ([9]; Rate 62 g/ha, Postemergence) was 2, the “B. signalgrass plant response rating” value ([9]; Rate 62 g/ha) was 2 and the “Plant response rating, B. signalgrass” value ([9]; Rate 125 g/ha, Postemergence) was 3. The “B. signalgrass plant response rating” value ([9]; Rate 125 g/ha) was 6, the “Plant response rating, B. signalgrass” value ([9]; Rate 250 g/ha, Postemergence) was 6 and the “Plant response rating, B. signalgrass” value ([9]; Rate 250 g/ha, Postemergence as printed in head r139 (second section for compounds 26-50)) was 7. For the same molecule, the “Plant response rating, Cocklebur” value ([10]; Rate 62 g/ha, Postemergence) was 7, the “Cocklebur plant response rating” value ([10]; Rate 62 g/ha) was 0 and the “Plant response rating, Cocklebur” value ([10]; Rate 125 g/ha, Postemergence) was 8. The “Cocklebur plant response rating” value ([10]; Rate 125 g/ha) was 0, the “Plant response rating, Cocklebur” value ([10]; Rate 250 g/ha, Postemergence) was 9 and the “Plant response rating, Cocklebur” value [10, 20] was 0. For the same molecule, the “Plant response rating, Bedstraw” value ([11]; Rate 62 g/ha, Postemergence) was 9, the “Bedstraw plant response rating” value ([11]; Rate 62 g/ha) was 2 and the “Plant response rating, Bedstraw” value ([11]; Rate 125 g/ha, Postemergence) was 9. The “Bedstraw plant response rating” value ([11]; Rate 125 g/ha) was 2, the “Plant response rating, Bedstraw” value ([11]; Rate 250 g/ha, Postemergence) was 10 and the “Plant response rating, Bedstraw” value [11, 20] was 8. For the same molecule, the “Plant response rating, Nutsedge” value ([12]; Rate 62 g/ha) was 0, the “Nutsedge plant response rating” value ([12]; Rate 125 g/ha) was 0 and the “Plant response rating, Nutsedge” value ([12]; Rate 250 g/ha) was 0. The “Plant response rating, Redroot pigweed” value ([13]; Rate 62 g/ha, Postemergence) was 9, the “Redroot pigweed plant response rating” value ([13]; Rate 62 g/ha, Preemergence) was 4 and the “Redroot pigweed plant response rating” value ([13]; Rate 125 g/ha, Postemergence) was 10. For the same molecule, the “Redroot pigweed plant response rating” value ([13]; Rate 125 g/ha, Preemergence) was 10, the “Plant response rating, Redroot pigweed” value ([13]; Rate 250 g/ha, Postemergence) was 10 and the “Plant response rating, Redroot pigweed” value [13, 20] was 10. The “Plant response rating, Sugarbeets” value ([14]; Rate 62 g/ha, Postemergence) was 10, the “Sugarbeets plant response rating” value ([14]; Rate 62 g/ha, Preemergence) was 3 and the “Sugarbeets plant response rating” value ([14]; Rate 125 g/ha, Postemergence) was 10. The “Plant response rating, Sugarbeets” value ([14]; Rate 125 g/ha, Preemergence) was 6, the “Plant response rating, Sugarbeets” value ([14]; Rate 250 g/ha, Postemergence) was 10 and the “Plant response rating, Sugarbeets” value [14, 20] was 8. For the same molecule, the “Wild oats plant response rating” value (wild oat (Avena fatua); Rate 62 g/ha, Postemergence) was 4, the “Wild oats plant response rating” value (wild oat (Avena fatua); Rate 62 g/ha, Preemergence) was 4 and the “Wild oats plant response rating” value (wild oat (Avena fatua); Rate 125 g/ha, Postemergence) was 5. For the same molecule, the “Plant response rating, Wild oats” value (wild oat (Avena fatua); Rate 125 g/ha, Preemergence) was 9, the “Plant response rating, Wild oats” value (wild oat (Avena fatua); Rate 250 g/ha, Postemergence) was 7 and the “Plant response rating, Wild oats” value (wild oat (Avena fatua); [20]) was 9. For the same molecule, the “Plant response rating, Blackgrass” value ([15]; Rate 62 g/ha, Postemergence) was 5, the “Blackgrass plant response rating” value ([15]; Rate 62 g/ha) was 7 and the “Plant response rating, Blackgrass” value ([15]; Rate 125 g/ha, Postemergence) was 6. For the same molecule, the “Blackgrass plant response rating” value ([15]; Rate 125 g/ha) was 9, the “Plant response rating, Blackgrass” value ([15]; Rate 250 g/ha, Postemergence) was 8 and the “Plant response rating, Blackgrass” value [15, 20] was 10.
